From US7718808B2, “Thiazole derivatives” (Kyowa Hakko Kirin Co., Ltd., priority 2003, dated 2010) come the findings set out here.

In the first assay the target is T1, Rat Adenosine A2A Receptor (Rattus norvegicus, UniProt P30543).
T1 construct: tissue Nippon SLC (animals); host or cells: rat (SD) corpus striatum membrane homogenate
T1 sequence (P30543 whole entry): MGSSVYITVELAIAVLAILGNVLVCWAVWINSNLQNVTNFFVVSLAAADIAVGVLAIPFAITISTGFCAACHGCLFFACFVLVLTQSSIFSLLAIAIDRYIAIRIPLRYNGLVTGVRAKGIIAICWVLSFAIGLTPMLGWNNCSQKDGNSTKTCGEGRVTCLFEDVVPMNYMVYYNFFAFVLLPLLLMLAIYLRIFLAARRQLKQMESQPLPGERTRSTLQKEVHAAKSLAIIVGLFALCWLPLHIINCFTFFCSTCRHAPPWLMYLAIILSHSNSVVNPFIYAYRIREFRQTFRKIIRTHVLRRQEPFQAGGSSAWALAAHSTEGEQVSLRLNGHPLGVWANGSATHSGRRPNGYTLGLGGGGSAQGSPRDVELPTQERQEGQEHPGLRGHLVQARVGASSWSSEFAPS
As to the kind of experiment: Adenosine A2A receptor binding test (3H-CGS21680 binding, rat corpus striatum). The following applies: test compound 10^−7 mol/L, 25° C., 120 minutes. As to the method: This test was carried but in a similar manner to a Bruns et al's method (Molecular Pharmacology, Vol. 29, p. 331, 1986).
Corpus striatum of rats (SD rat, by Nippon SLC) was suspended in 50 mL of an ice-cooled 50 mmol/L tris(hydroxymethyl)aminomethane hydrochloride (Tris-HCl) buffer (pH 7.7) using a polytron homogenizer (by Kinematica). The resulting homogenate was centrifuged (48,000×g, 20 minutes), and the resulting precipitate was again suspended by adding the same amount of a 50 mmol/L Tris-HCl buffer, followed by centrifugation under the same condition. The resulting final precipitate was suspended by adding a 50 mmol/L Tris-HCl buffer [containing 10 mmol/L magnesium chloride, adenosine deaminase 0.02 units/mg tissue (by Sigma)] so that the tissue concentration was 5 mg (wet weight)/mL.
To 100 μL of the above purified tissue suspension, were added 80 μL (final concentration […]) of tritium-labeled CGS-21680 {^3H-2-[p-(2-carboxyethyl)phenethylamino]-5′-(N-ethylcarboxamido)-adenosine: 40 curies/mmol; by New England Nuclear [The Journal of Pharmacology and Experimental Therapeutics, Vol. 251, p. 888, 1989]} and 20 μL of a test compound solution (10^−7 mol/L; a solution of a test compound in DMSO was diluted with Tris-HCl buffer). The resulting mixture was allowed to stand at 25° C. for 120 minutes, followed by rapid suction filtration through a glass fiber paper filter (GF/C; by Whatman). The filter was immediately washed three times with 200 μL of an ice-cooled 50 mmol/L Tris-HCl buffer. The glass fiber paper filter was transferred into a vial, Microscinti (by Perkin Elmer) was added thereto, and the radioactivity level was measured with Topcount (by Perkin Elmer).
The inhibition rate of the test compound to the adenosine A2A receptor binding (^3H-CGS21680 binding) was calculated according to the following formula.
Amount of total binding means the ^3H-CGS21680 binding radioactivity content in the absence of the test compound. Amount of non-specific binding means the ^3H-CGS21680 binding radioactivity content in the presence of 100 μmol/L cyclopentyladenosine (CPA; by Sigma). Amount of binding in the presence of test compound means the ^3H-CGS21680 binding radioactivity content in the presence of 10^−7 mol/L of the test compound.
Consider `Cc1ncc(C(=O)Nc2nc(-c3ccco3)c(C(=O)c3ccccn3)s2)cn1` [Compound 228], for which the “Rat Adenosine A2A Receptor Binding Inhibition rate (%) (10^−7 mol/L)” value turned out to be 84%.

Turning to `O=C(Nc1nc(-c2ccco2)c(C(=O)C2CCCC2)s1)c1ccncc1` [Compound 431, N-[5-(Cycolopentylcarbonyl)-4-(2-furyl)thiazol-2-yl]-pyridine-4-carboxamide], the “Rat Adenosine A2A Receptor Binding Inhibition rate (%) (10^−7 mol/L)” value amounted to 98%.

Staying with this assay, now noted: test compound 10^−7 mol/L, 25° C., 120 minutes, read-out: Rat Adenosine A2A Receptor Binding Inhibition rate (%) (10^−7 mol/L).
Regarding `O=C(Nc1nc(-c2ccco2)c(-c2ccncc2)s1)C1CCCCC1` [Compound 4, N-[4-(2-Furyl)-5-(4-pyridyl)thiazol-2-yl]cyclohexanecarboxamide], the inhibition at 0.1 µM was determined as 95%.

With `O=C(Nc1nc(-c2ccco2)c(-c2ccncc2)s1)c1cccnc1` [Compound 5, N-[4-(2-Furyl)-5-(4-pyridyl)thiazol-2-yl]pyridine-3-carboxamide], the inhibition at 0.1 µM worked out at 100%.

For `O=C(Nc1nc(-c2ccco2)c(-c2ccncc2)s1)c1ccco1` [Compound 8, N-[4-(2-Furyl)-5-(4-pyridyl)thiazol-2-yl]furan-2-carboxamide], the inhibition at 0.1 µM worked out at 100%.

Take `O=C(Nc1nc(-c2ccco2)c(-c2ccncc2)s1)c1ccoc1` [Compound 9, N-[4-(2-Furyl)-5-(4-pyridyl)thiazol-2-yl]furan-3-carboxamide]: the inhibition at 0.1 µM amounted to 100%.

`O=C(Nc1nc(-c2ccco2)c(-c2ccncc2)s1)c1ccc(O)nc1` [Compound 11, N-[4-(2-Furyl)-5-(4-pyridyl)thiazol-2-yl]-2-hydroxypyridine-5-carboxamide]: the inhibition at 0.1 µM amounted to 100%.

Turning to `O=C(Nc1nc(-c2ccco2)c(-c2ccncc2)s1)c1ccc(Cn2ccnc2)cc1` [Compound 19, N-[4-(2-Furyl)-5-(4-pyridyl)thiazol-2-yl]-4-(imidazol-1-ylmethyl)benzamide], the inhibition at 0.1 µM worked out at 90%.

Consider `O=C(Nc1nc(-c2ccco2)c(Cc2ccccc2)s1)c1ccncc1` [Compound 23, N-[5-Benzyl-4-(2-furyl)thiazol-2-yl]pyridine-4-carboxamide], for which the inhibition at 0.1 µM was determined as 85%.

`CCOC(=O)c1sc(NC(=O)c2ccncc2)nc1-c1ccco1` [Compound 24, N-(5-(Ethoxycarbonyl)-4-(2-furyl)thiazol-2-yl]pyridine-4-carboxamide]: the inhibition at 0.1 µM was found to be 88%.

On to `CN1CCN(c2cc(C(=O)Nc3nc(-c4ccco4)c(N4CCOCC4)s3)ccn2)CC1` [Compound 41, N-[4-(2-Furyl)-5-morpholinothiazol-2-yl]-2-(4-methylpiperazin-1-yl)pyridine-4-carboxamide], for which the inhibition at 0.1 µM was 92%.

Consider `CS(=O)(=O)c1ccc(N2CCC(C(=O)Nc3nc(-c4ccco4)c(N4CCOCC4)s3)CC2)nc1` [Compound 46, N-[4-(2-Furyl)-5-morpholinothiazol-2-yl]-1-[5-(methanesulfonyl)pyridin-2-yl]piperidine-4-carboxamide], for which the inhibition at 0.1 µM was found to be 95%.

For the compound `O=C(Nc1nc(-c2ccco2)c(CN2CCSCC2)s1)c1ccncc1` [Compound 87, N-[4-(2-Furyl)-5-(thiomorpholinomethyl)thiazol-2-yl]pyridine-4-carboxamide], the inhibition at 0.1 µM was determined as 100%.

As for `O=C(Nc1nc(-c2ccco2)c(CN2CCOCC2)s1)c1cccnc1` [Compound 94, N-[4-(2-Furyl)-5-(morpholinomethyl)thiazol-2-yl]pyridine-3-carboxamide], the inhibition at 0.1 µM was determined as 100%.

Regarding `O=C(Nc1nc(-c2ccco2)c(C(=O)c2ccccc2)s1)c1ccncc1` [Compound 99, N-[5-Benzoyl-4-(2-furyl)thiazol-2-yl]pyridine-4-carboxamide], the inhibition at 0.1 µM was found to be 98%.

For the compound `O=C(Nc1nc(-c2ccco2)c(C(=O)c2ccc(F)cc2)s1)c1ccncc1` [Compound 170, N-[5-(4-Fluorobenzoyl)-4-(2-furyl)thiazol-2-yl]pyridine-4-carboxamide], the inhibition at 0.1 µM is 87%.

As for `COC(=O)Nc1nc(-c2ccco2)c(C(=O)c2ccccn2)s1` [Compound 249, Methyl N-[4-(2-furyl)-5-(pyridin-2-ylcarbonyl)thiazol-2-yl]carbamate], the inhibition at 0.1 µM worked out at 85%.
